These compounds were tested against T1, ULK1 kinase (Homo sapiens, UniProt O75385) (assay: Biochemical assay for ULK1.2 (coupled pyruvate kinase/lactate dehydrogenase assay)). Conditions: 19 nM ULK1 (Eurofins), myelin basic protein, 1 mM ATP.
T1 construct: purchased Eurofins 14-959
T1 sequence (O75385 with tags, fused parts or gaps): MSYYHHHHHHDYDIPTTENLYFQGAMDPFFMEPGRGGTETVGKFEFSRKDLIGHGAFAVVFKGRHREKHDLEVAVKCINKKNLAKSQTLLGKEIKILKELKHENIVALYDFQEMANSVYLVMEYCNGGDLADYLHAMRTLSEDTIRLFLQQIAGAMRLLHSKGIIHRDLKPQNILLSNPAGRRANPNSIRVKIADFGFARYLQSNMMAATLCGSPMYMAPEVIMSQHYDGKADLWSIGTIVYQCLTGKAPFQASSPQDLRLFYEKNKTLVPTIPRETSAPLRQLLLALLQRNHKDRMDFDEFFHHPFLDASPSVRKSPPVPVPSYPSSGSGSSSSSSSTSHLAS
Method: Example 174. Biochemical Assay for ULK1.2
Activity of ULK1 kinase was determined spectroscopically using a coupled pyruvate kinase/lactate dehydrogenase assay that continuously monitors the ATP hydrolysis-dependent oxidation of NADH (e.g., Schindler et al. Science (2000) 289: 1938-1942). Assays were conducted in 384-well plates (100 uL final volume) using 19 nM ULK1 (Eurofins CAT #14-959), 0.25 mg/mL myelin basic protein, 1.5 units pyruvate kinase, 2.1 units lactate dehydrogenase, 1 mM phosphoenol pyruvate, 0.28 mM NADH and 1 mM ATP in assay buffer (100 mM Tris, pH 7.5, 15 mM MgCl2, 0.5 mM DTT, 0.1% octyl-glucoside, 0.002% (w/v) BSA, and 0.002% Triton X-100). Inhibition of ULK1 was measured by adding serial diluted test compound (final assay concentration of 1% DMSO). A decrease in absorption at 340 nm was monitored continuously for 6 hours at 30° C. on a multi-mode microplate reader (BioTek). The reaction rate was calculated using the 2-3 h time frame. The reaction rate at each concentration of compound was converted to percent inhibition using controls (i.e. reaction with no test compound and reaction with a known inhibitor) and IC50 values were calculated by fitting a four-parameter sigmoidal curve to the data using Prism (GraphPad software).

| Compound | IC50 |
| --- | --- |
| O=C1CCCCN1CCCNc1nc(Nc2cnn(C3CCN(CC4CC4)CC3)c2)ncc1Cl [Example 3] | 1 to 25 nM |
| CC(C)N1CCC(n2cc(Nc3ncc(Cl)c(NCCCN4CCCCC4=O)n3)cn2)CC1 [Example 5] | 25 to 100 nM |
| CN1CCC(n2cc(Nc3ncc(C(F)(F)F)c(NCCCN4CCCCC4=O)n3)cn2)CC1 [Example 10] | 1 to 25 nM |
| CC(C)CN1CC(n2cc(Nc3ncc(Cl)c(NCCCN4CCCCC4=O)n3)cn2)C1 [Example 11] | 100 to 500 nM |
| Cc1nn(C2CCN(CC3CC3)CC2)cc1Nc1ncc(C(F)(F)F)c(NCCCN2CCCCC2=O)n1 [Example 19] | 1 to 25 nM |
| Cc1nn(CCN2CCCCC2)cc1Nc1ncc(C(F)(F)F)c(NCCCN2CCCCC2=O)n1 [Example 22] | 100 to 500 nM |
| Cc1nn([C@@H]2CCN(C)C2)cc1Nc1ncc(Cl)c(NCCCN2CCCCC2=O)n1 [Example 24] | 100 to 500 nM |
| Cc1nn(CCCN2CCCCC2)cc1Nc1ncc(C(F)(F)F)c(NCCCN2CCCCC2=O)n1 [Example 28] | 25 to 100 nM |
| Cc1nn(CCCN2CCOCC2)cc1Nc1ncc(C(F)(F)F)c(NCCCN2CCCCC2=O)n1 [Example 30] | 100 to 500 nM |
| Cc1nn([C@@H]2CCNC2)cc1Nc1ncc(C(F)(F)F)c(NCCCN2CCCCC2=O)n1 [Example 34] | 1 to 25 nM |
| Cc1nn(CCCN(C)C)cc1Nc1ncc(C(F)(F)F)c(NCCCN2CCCCC2=O)n1 [Example 35] | 25 to 100 nM |
| Cc1nn([C@@H]2CCN(C(C)C)C2)cc1Nc1ncc(C(F)(F)F)c(NCCCN2CCCCC2=O)n1 [Example 36] | 25 to 100 nM |
| CCN1CCC(n2cc(Nc3ncc(C(F)(F)F)c(NCCCN4CCCCC4=O)n3)c(C)n2)CC1 [Example 37] | 1 to 25 nM |
| CCc1nn(C2CCN(CC)CC2)cc1Nc1ncc(C(F)(F)F)c(NCCCN2CCCCC2=O)n1 [Example 42] | 25 to 100 nM |
| CCc1nn(C2CCN(C(C)C)CC2)cc1Nc1ncc(C(F)(F)F)c(NCCCN2CCCCC2=O)n1 [Example 43] | 25 to 100 nM |
| CCc1nn(C2CCN(CC)CC2)cc1Nc1ncc(Cl)c(NCCCN2CCCCC2=O)n1 [Example 46] | 100 to 500 nM |
| CCc1nn(C2CCN(C)CC2)cc1Nc1ncc(C(F)(F)F)c(NCCCN2CCCCC2=O)n1 [Example 47] | 1 to 25 nM |
| [2H]C([2H])([2H])N1CCC(n2cc(Nc3ncc(Br)c(NCCCN4CCCCC4=O)n3)c(C)n2)CC1 [Example 49] | 1 to 25 nM |
| CCN1CCC(n2cc(Nc3ncc(Br)c(NCCCN4CCCCC4=O)n3)c(C)n2)CC1 [Example 50] | 25 to 100 nM |
| [2H]C([2H])([2H])N1CCC(n2cc(Nc3ncc(C(F)(F)F)c(NCCCN4CCCCC4=O)n3)c(CC)n2)CC1 [Example 52] | 1 to 25 nM |
| CCc1nn(C2CCN(C)CC2)cc1Nc1ncc(Cl)c(NCCCN2CCCCC2=O)n1 [Example 55] | 100 to 500 nM |
| [2H]C([2H])([2H])N1CCC(n2cc(Nc3ncc(Cl)c(NCCCN4CCCCC4=O)n3)c(C)n2)CC1 [Example 57] | 100 to 500 nM |
| Cc1nn(C2CCN(CCF)CC2)cc1Nc1ncc(C(F)(F)F)c(NCCCN2CCCCC2=O)n1 [Example 59] | 25 to 100 nM |
| Cc1nn(CCN2CCOCC2)cc1Nc1ncc(Br)c(NCCCN2CCCCC2=O)n1 [Example 63] | > 500 nM |
| Cc1nn([C@H]2CCNC2)cc1Nc1ncc(C(F)(F)F)c(NCCCN2CCCCC2=O)n1 [Example 65] | 1 to 25 nM |
| CCc1nn(C2CCN(C(C)C)CC2)cc1Nc1ncc(C(F)(F)F)c(NCCCN2CCCOC2=O)n1 [Example 70] | 25 to 100 nM |

| Compound | IC50 |
| --- | --- |
| CCN1CCC(n2cc(Nc3ncc(C(F)(F)F)c(NCCCN4CCCC4=O)n3)c(C)n2)CC1 [Example 82] | 100 to 500 nM |
| Cc1nn(C2CCN(C(C)C)CC2)cc1Nc1ncc(C(F)(F)F)c(NCCCN2CCCCCC2=O)n1 [Example 85] | 1 to 25 nM |
| Cc1nn(C2CCN(C(C)C)CC2)cc1Nc1ncc(Cl)c(NCCCN2CCCCCC2=O)n1 [Example 87] | 25 to 100 nM |
| CC(C)N1CCC(n2cc(Nc3ncc(C(F)(F)F)c(NCCCN4CCCCCC4=O)n3)cn2)CC1 [Example 88] | 1 to 25 nM |
| Cc1nn(C2CCN(CC(C)C)CC2)cc1Nc1ncc(C(F)(F)F)c(NCCCN2CCCCCC2=O)n1 [Example 89] | 1 to 25 nM |
| Cc1nn(C2CCN(C3CCC3)CC2)cc1Nc1ncc(C(F)(F)F)c(NCCCN2CCCCCC2=O)n1 [Example 92] | 1 to 25 nM |
| Cc1nn(C2CCN(C3CCCC3)CC2)cc1Nc1ncc(C(F)(F)F)c(NCCCN2CCCCCC2=O)n1 [Example 93] | 1 to 25 nM |
| Cc1nn([C@@H]2CCN(C(C)C)C2)cc1Nc1ncc(C(F)(F)F)c(NCCCN2CCCCCC2=O)n1 [Example 95] | 1 to 25 nM |
| CC(C)CN1CC(n2cc(Nc3ncc(C(F)(F)F)c(NCCCN4CCCCCC4=O)n3)cn2)C1 [Example 97] | 1 to 25 nM |
| [2H]C([2H])([2H])N1CCC(n2cc(Nc3ncc(C(F)(F)F)c(NCCCN4CCCCCC4=O)n3)c(C)n2)CC1 [Example 101] | 1 to 25 nM |
| Cc1nn(CCCN2CCOCC2)cc1Nc1ncc(C(F)(F)F)c(NCCCN2CCCOCC2=O)n1 [Example 112] | 100 to 500 nM |
| Cc1nn(C2CN(CC(C)C)C2)cc1Nc1ncc(C(F)(F)F)c(NCCCN2CCCC2=O)n1 [Example 128] | 1 to 25 nM |
| Cc1nn([C@@H]2CCN(C)C2)cc1Nc1ncc(Cl)c(NCCCN2CCOCCC2=O)n1 [Example 134] | 100 to 500 nM |
| CN1CCN(CCCNc2nc(Nc3cnn(C4CCN(C5CC5)CC4)c3)ncc2Cl)C1=O [Example 148] | 100 to 500 nM |
| CC1(C)CCC(=O)N1CCCNc1nc(Nc2cnn(C3CCN(C4CC4)CC3)c2)ncc1Cl [Example 149] | 100 to 500 nM |
| CN1CCC(n2cc(Nc3ncc(C(F)(F)F)c(NCCCN4CCN(C)C4=O)n3)cn2)CC1 [Example 151] | 1 to 25 nM |
| Cc1nn(C2CN(CC(C)C)C2)cc1Nc1ncc(Br)c(NCCCN2CCCC2=O)n1 [Example 154] | > 500 nM |
| CC1CCN(CCCNc2nc(Nc3cnn(C4CCN(C5CC5)CC4)c3)ncc2Cl)C1=O (stereo not shown) [Example 155] | 100 to 500 nM |
| Cc1nn([C@@H]2CCNC2)cc1Nc1ncc(Cl)c(NCCCN2CCCC2=O)n1 [Example 158] | > 500 nM |
| Cc1nn([C@@H]2CCN(C)C2)cc1Nc1ncc(Cl)c(NCCCN2CCCC2=O)n1 [Example 160] | > 500 nM |
| Cc1nn(C2CN(CC(C)C)C2)cc1Nc1ncc(Cl)c(NCCCN2CCCC2=O)n1 [Example 161] | > 500 nM |
| Cc1nn(CCN2CCCC2)cc1Nc1ncc(Cl)c(NCCCN2CCCC2=O)n1 [Example 162] | > 500 nM |
| Cc1nn(CCN2CCOCC2)cc1Nc1ncc(Cl)c(NCCCN2CCCC2=O)n1 [Example 163] | > 500 nM |
| Cc1nn([C@H]2CCNC2)cc1Nc1ncc(C(F)(F)F)c(NCCCN2CCCC2=O)n1 [Example 167] | 100 to 500 nM |
| Cc1nn([C@@H]2CCNC2)cc1Nc1ncc(C(F)(F)F)c(NCCCN2CCCC2=O)n1 [Example 169] | 100 to 500 nM |

The compounds below were run on phospho-Serine 318 ATG13 (pATG13), ULK kinase substrate, in A549 (KRAS mutant) cells (assay: pATG13 levels of mutant KRas A549 cells after treatment with ULK inhibitors in combination with trametinib (ELISA)). Conditions: with 250 nM trametinib.
Format: cell-based, human
Method: Example 177. Cellular Inhibition of ULK Kinase Substrate ATG13 Protein pATG13 Levels of Mutant KRas A549 Cells after Treatment with ULK Inhibitors in Combination with Trametinib
A549 (KRAS mutant) human lung cancer cells (6,000 cells/well) were added to a 384-well tissue-culture treated plate in 50 μL of pre-warmed DMEM medium supplemented with 10% characterized fetal bovine serum (Invitrogen, Carlsbad, Calif.), 100 units/mL penicillin G, and 100 μg/mL streptomycin and allowed to grow overnight at 37° C., 5% CO2, and 95% humidity. The following day, 10 μL of media containing trametinib or DMSO as a control was added to wells. The final concentration of trametinib in wells was 250 nM. A dose response of a test compound (0.6 μL per well) was added. DMSO (0.6 μL) was added to control wells. The plate was briefly shaken to mix wells and then incubated at 37° C. overnight. The next day, the media was aspirated and cells were washed with Dulbecco's Phosphate Buffered Saline (Gibco). Cells were lysed using MPER lysis buffer (Pierce, Rockford, Ill.) containing Halt Phosphatase and Protease Inhibitors (Pierce, Rockford, Ill.) and Phosphatase inhibitor cocktail 2 (Sigma, St. Louis, Mo.) at 4° C. for 10 minutes with shaking.
Cellular levels of phospho-Serine 318 ATG13 (pATG13) were measured via an ELISA method. Total ATG13 Antibody (Cell Signaling Cat #13273) was used to coat the wells. The plate was incubated at 4° C. overnight and washed with ELISA wash buffer (Biolegend Cat #421601). The wells were then blocked with assay diluent (Biolegend Cat #421203) for 1 hour at room temperature. Plate wells were washed with ELISA wash buffer. Cell lysate was added to wells and incubated at room temperature for 2 hours. Plate wells were washed with ELISA wash buffer. Biotinylated pS318-ATG13 antibody (Rockland Immunochemicals Cat #600-401-C49) was diluted in assay diluent and added to each well and incubated at room temperature for 1 hour. Plate wells were washed with ELISA wash buffer. Streptavidin linked to horseradish peroxidase (Thermo Fisher Cat #21140) was diluted in assay diluent and added to each well and incubated at room temperature for 1 hour. Plate wells were washed with ELISA wash buffer. High sensitivity TMB substrate (Biolegend Cat #421101) was added to each well and incubated at room temperature for 20 minutes. The reaction was stopped with 2N Sulfuric Acid. The plate was analyzed at on a plate reader measuring absorbance at 450 nm and 540 nm (background). Signal was calculated by first subtracting the background absorbance at 540 nm from the absorbance at 450 nm for each well. Next, the background corrected absorbance at 450 nm from blank wells was subtracted from test wells. Data was compared to control wells to determine % ATG13 phosphorylation. GraphPad Prism was used to calculate IC50 values.

| Compound | IC50 |
| --- | --- |
| O=C1CCCCN1CCCNc1nc(Nc2cnn(C3CCN(CC4CC4)CC3)c2)ncc1Cl [Example 3] | 10 to 100 nM |
